# Patent US20150150851A1, “FORMULATION AND DOSING OF HSP90 INHIBITORY COMPOUNDS” (Synta Pharmaceuticals Corp., priority 2010, published 2015)
# Test: Equilibrium solubility in polysorbate 80 / PEG 300 mixtures (72 hours, HPLC)
# Format: physicochemical
# Details: organic solvent or mixture, thermodynamic from solid
compound,measurement,setting,value
"CC(C)c1cc(-c2n[nH]c(=O)n2-c2ccc3c(ccn3C)c2)c(O)cc1O [Compound 1, 3-(2,4-dihydroxy-5-isopropyl-phenyl)-4-(1-methyl-indol-5-yl)-5-hydroxy-[1,2,4] triazole]",solubility at 72 h,"polysorbate 80 / PEG 300 mixture, 40% PEG 300, 60% polysorbate 80, equilibrated 72 hours",76.1 mg/mL
same,solubility at 72 h,"polysorbate 80 / PEG 300 mixture, 45% PEG 300, 55% polysorbate 80, equilibrated 72 hours",84.7 mg/mL
same,solubility at 72 h,"polysorbate 80 / PEG 300 mixture, 50% PEG 300, 50% polysorbate 80, equilibrated 72 hours",96.2 mg/mL
same,solubility at 72 h,"polysorbate 80 / PEG 300 mixtures, in all three polysorbate 80 / PEG 300 solutions",> 75 mg/mL
